Laboratory results published in patent US20130244999A1, “Substituted Heterocyclic Compounds” (Incyte Corporation, priority 2008, published 2013).

Target: T1, histamine H4 receptor (Homo sapiens, UniProt Q9H3N8)
T1 construct: expressed in transfected cells; host or cells: HEK293SFM cells (membrane preparation)
Test: Inhibition of histamine H4 receptor (Table A1; H4 membrane binding assay)
Conditions: not given
How it was run: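 Membranes came from recombinant HEK293SFM cells expressing human H4, homogenized in 50 mM Tris-HCl pH 7.5 with protease inhibitors. Nonspecific binding was set with 1000× unlabeled ligand. Bound radioligand was separated on PEI-treated GF/B filters and counted by liquid scintillation.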

| inhibition at 1 µM [%] | SMILES |
| --- | --- |
| 79 | CC1Cc2ccc(-c3cnn(C4CCOCC4)c3)cc2CN1c1cc(N2CCN(C)CC2)nc(N)n1 (stereo not shown) [Example 95B, 4-(4-Methylpiperazin-1-yl)-6-[3-methyl-7-[1-(tetrahydro-2H-pyran-4-yl)-1H-pyrazol-4-yl]-3,4-dihydroisoquinolin-2(1H)-yl]pyrimidin-2-amine] |
| 56 | CC1Cc2ccc(-c3cnn(C4CCS(=O)(=O)C4)c3)cc2CN1c1cc(N2CCN(C)CC2)nc(N)n1 (stereo not shown) [Example 98B, 4-[7-[1-(1,1-dioxidotetrahydro-3-thienyl)-1H-pyrazol-4-yl]-3-methyl-3,4-dihydroisoquinolin-2(1H)-yl]-6-(4-methylpiperazin-1-yl)pyrimidin-2-amine] |

Same assay, conditions: histamine H4 receptor; "> a" = exceeds experiment limit

| IC50 [µM] | SMILES |
| --- | --- |
| 0.106 | CC1Cc2ccc(-c3cnn(CC(=O)N(C)C)c3)cc2CN1c1cc(N2CCN(C)CC2)nc(N)n1 (stereo not shown) [Example 80, 2-(4-{2-[2-Amino-6-(4-methylpiperazin-1-yl)pyrimidin-4-yl]-3-methyl-1,2,3,4-tetrahydroisoquinolin-7-yl}-1H-pyrazol-1-yl)-N,N-dimethylacetamide] |
| 0.02 | Cc1nc(-c2ccc3c(c2)CN(c2cc(N4CCN(C)CC4)nc(N)n2)C(C)C3)cs1 (stereo not shown) [Example 116, 4-[3-Methyl-7-(2-methyl-1,3-thiazol-4-yl)-3,4-dihydroisoquinolin-2(1H)-yl]-6-(4-methylpiperazin-1-yl)pyrimidin-2-amine] |
| 0.043 | CCOc1nc(-c2ccc3c(c2)CN(c2cc(N4CCN(C)CC4)nc(N)n2)C(C)C3)cs1 (stereo not shown) [Example 117, 4-[7-(2-Ethoxy-1,3-thiazol-4-yl)-3-methyl-3,4-dihydroisoquinolin-2(1H)-yl]-6-(4-methylpiperazin-1-yl)pyrimidin-2-amine] |
| 0.255 | CC1Cc2ccc(-c3cnn(C)c3)cc2CN1c1cc(N2CC[C@@H](N)C2)nc(N)n1 (stereo partly drawn) [Example 118, 4-[(3R)-3-Aminopyrrolidin-1-yl]-6-[3-methyl-7-(1-methyl-1H-pyrazol-4-yl)-3,4-dihydroisoquinolin-2(1H)-yl]pyrimidin-2-amine] |
| 0.04 | CC1Cc2ccc(-c3cnn(C)c3)cc2CN1c1cc(N2CCC(N)CC2)nc(N)n1 (stereo not shown) [Example 120, 4-(4-Aminopiperidin-1-yl)-6-[3-methyl-7-(1-methyl-1H-pyrazol-4-yl)-3,4-dihydroisoquinolin-2 (1H)-yl]pyrimidin-2-amine] |
| 0.024 | CC1Cc2ccc(-c3cnn(C)c3)cc2CN1c1cc(N2CCNCC2)nc(N)n1 (stereo not shown) [Example 121, 4-[3-Methyl-7-(1-methyl-1H-pyrazol-4-yl)-3,4-dihydroisoquinolin-2 (1H)-yl]-6-piperazin-1-ylpyrimidin-2-amine] |
| 0.051 | CC1Cc2ccc(-c3cnn(C)c3)cc2CN1c1cc(N2CCCNCC2)nc(N)n1 (stereo not shown) [Example 122, 4-(1,4-Diazepan-1-yl)-6-[3-methyl-7-(1-methyl-1H-pyrazol-4-yl)-3,4-dihydroisoquinolin-2(1H)-yl]pyrimidin-2-amine] |
| 0.124 | CC1Cc2ccc(-c3cnn(C)c3)cc2CN1c1cc(N2CC3CC2CN3)nc(N)n1 (stereo not shown) [Example 123, 4-(2,5-Diazabicyclo[2.1.1]hept-2-yl)-6-[3-methyl-7-(1-methyl-1H-pyrazol-4-yl)-3,4-dihydroisoquinolin-2(1H)-yl]pyrimidin-2-amine] |
| 0.121 | CN[C@@H]1CCN(c2cc(N3Cc4cc(-c5cnn(C)c5)ccc4CC3C)nc(N)n2)C1 (stereo partly drawn) [Example 124, 4-[(3R)-3-(Methylamino)pyrrolidin-1-yl]-6-[3-methyl-7-(1-methyl-1H-pyrazol-4-yl)-3,4-dihydroisoquinolin-2(1H)-yl]pyrimidin-2-amine] |
| 0.056 | CC1Cc2ccc(-c3cnn(C)c3)cc2CN1c1cc(N2CCCN(C)CC2)nc(N)n1 (stereo not shown) [Example 125, 4-(4-Methyl-1,4-diazepan-1-yl)-6-[3-methyl-7-(1-methyl-1H-pyrazol-4-yl)-3,4-dihydroisoquinolin-2(1H)-yl]pyrimidin-2-amine] |
| 0.066 | CC1Cc2ccc(-c3cnn(C)c3)cc2CN1c1cc(N2CCN3CCCC3C2)nc(N)n1 (stereo not shown) [Example 126, 4-(Hexahydropyrrolo[1,2-a]pyrazin-2(1H)-yl)-6-[3-methyl-7-(1-methyl-1H-pyrazol-4-yl)-3,4-dihydroisoquinolin-2(1H)-yl]pyrimidin-2-amine] |
| 0.104 | CNC(=O)c1ccc(-c2cc3c(cc2F)CCN(c2cc(N4CCN(C)CC4)nc(N)n2)C3)cn1 [Example 127, 5-{2-[2-Amino-6-(4-methylpiperazin-1-yl)pyrimidin-4-yl]-6-fluoro-1,2,3,4-tetrahydroisoquinolin-7-yl}-N-methylpyridine-2-carboxamide] |
| 0.148 | CN1CCN(c2cc(N3CCc4cc(F)c(-c5cccc(C(=O)N(C)C)c5)cc4C3)nc(N)n2)CC1 [Example 128, 3-{2-[2-Amino-6-(4-methylpiperazin-1-yl)pyrimidin-4-yl]-6-fluoro-1,2,3,4-tetrahydroisoquinolin-7-yl}-N,N-dimethylbenzamide] |
| 0.112 | CC1Cc2ccc(-c3ccc4c(c3)CN(C3CC3)C4=O)cc2CN1c1cc(N2CCN(C)CC2)nc(N)n1 (stereo not shown) [Example 129, 5-{2-[2-Amino-6-(4-methylpiperazin-1-yl)pyrimidin-4-yl]-3-methyl-1,2,3,4-tetrahydroisoquinolin-7-yl}-2-cyclopropylisoindolin-1-one] |
| 0.069 | CNC(=O)c1ccc(-c2ccc3c(c2)CN(c2cc(N4CCN(C)CC4)nc(N)n2)C(C)C3)cc1C (stereo not shown) [Example 130, 4-{2-[2-Amino-6-(4-methylpiperazin-1-yl)pyrimidin-4-yl]-3-methyl-1,2,3,4-tetrahydroisoquinolin-7-yl}-N,2-dimethylbenzamide] |
| 0.03 | CC1Cc2ccc(-c3ccc4c(c3)NC(=O)CO4)cc2CN1c1cc(N2CCN(C)CC2)nc(N)n1 (stereo not shown) [Example 131, 6-{2-[2-amino-6-(4-methylpiperazin-1-yl)pyrimidin-4-yl]-3-methyl-1,2,3,4-tetrahydroisoquinolin-7-yl}-2H-1,4-benzoxazin-3(4H)-one] |
| 0.039 | CC1Cc2ccc(-c3ccc4c(c3)N(C)C(=O)CO4)cc2CN1c1cc(N2CCN(C)CC2)nc(N)n1 (stereo not shown) [Example 132, 6-{2-[2-Amino-6-(4-methylpiperazin-1-yl)pyrimidin-4-yl]-3-methyl-1,2,3,4-tetrahydroisoquinolin-7-yl}-4-methyl-2H-1,4-benzoxazin-3(4H)-one] |
| 0.059 | CNC(=O)c1cnc(-c2ccc3c(c2)CN(c2cc(N4CCN(C)CC4)nc(N)n2)C(C)C3)s1 (stereo not shown) [Example 133, 2-{2-[2-amino-6-(4-methylpiperazin-1-yl)pyrimidin-4-yl]-3-methyl-1,2,3,4-tetrahydroisoquinolin-7-yl}-N-methyl-1,3-thiazole-5-carboxamide] |
| 0.038 | CC1Cc2ccc(-c3ncc(C(=O)N(C)C)s3)cc2CN1c1cc(N2CCN(C)CC2)nc(N)n1 (stereo not shown) [Example 134, 2-{2-[2-Amino-6-(4-methylpiperazin-1-yl)pyrimidin-4-yl]-3-methyl-1,2,3,4-tetrahydroisoquinolin-7-yl}-N,N-dimethyl-1,3-thiazole-5-carboxamide] |
| 0.048 | CC1Cc2ccc(-c3cnc4[nH]cnc4c3)cc2CN1c1cc(N2CCN(C)CC2)nc(N)n1 (stereo not shown) [Example 135, 4-[7-(3H-Imidazo[4,5-b]pyridin-6-yl)-3-methyl-3,4-dihydroisoquinolin-2(1H)-yl]-6-(4-methylpiperazin-1-yl)pyrimidin-2-amine] |
